The source of these data is patent US20210038589A1, “USES, COMPOSITIONS AND METHODS” (priority 2018, published 2021).

The structures appear in SMILES notation.

The subject of assay [1] is gamma oscillations in mouse hippocampal slices. Description: Prevention of Aβ-induced degradation of kainate-induced gamma oscillations in hippocampal slices (interface chamber). Type of assay: cell-based. The settings on record: 50 nM Aβ in last 15 min, 100 nM KA. Here is the method:
Previously we have characterized the effects of acute Aβ on the hippocampal circuitry of WT mice. […] During the last 15 min 50 nM Aβ was added to the incubation solution. […] Control experiments were also performed by incubating slice just with ACSF for 1 h (with Aβ present for the last 15 min) or incubating just with ACSF for 1 h. […] Pmzd 10 μM: 9.95±1.82×10^-9V^2, n=10, p<0.0001 vs Aβ, FIGS. 4A,B,C,F, light and dark green, respectively). […] Horizontal sections (350 μm thick) of the ventral hippocampi of both hemispheres were prepared with a Leica VT1200S vibratome (Leica Microsystems). Immediately after cutting, slices were transferred into a humidified interface holding chamber containing standard ACSF (in mM): 124 NaCl, 30 NaHCO3, 10 glucose, 1.25 NaH2PO4, 3.5 KCl, 1.5 MgCl2, 1.5 CaCl2, continuously supplied with humidified carbogen. The chamber was held at 34° C. during slicing and subsequently allowed to cool down to room temperature ( 22° C.) for a minimum of 1 hour. Recordings were carried out in hippocampal area CA3 with borosilicate glass microelectrodes, pulled to a resistance of 3-7 MΩ. Local field potential (LFP) were recorded using microelectrodes filled with ACSF placed in CA3 stratum pyramidale. LFP oscillations were elicited by applying kainic acid (100 nM) to the extracellular bath, Interface chamber LFP recordings were performed with a 4-channel […] amplifier (University of Cologne, Germany). Submerged chamber LFP recordings and patch-clamp recordings were performed using a Multiclamp 700B (Molecular Devices, CA, USA). In order to maintain stable LFP oscillations all recordings were performed at 34° C. with a perfusion rate of 3-5 ml per minute of aerated ACSF containing 100 nM Kainate. The oscillations were allowed to stabilize for at least 20 minutes before any recordings were performed. Power spectra density plots (from 60 s long LFP recordings) were calculated in averaged Fourier-segments of 8192 points using Axograph X (Kagi, Berkeley, Calif., USA). […] Coefficient of rhythmicity (Cr) was calculated in order to assess the rhythmicity of gamma oscillations (26, 27) and was defined as Cr=(α-β)/(α+β) were α corresponds to the value of the height of the second peak and β to the first valley in the normalized autocorrelogram. […] Only recordings having Cr≥0.01 were considered rhythmic.

Assay [2] shares this test system. In words: Rescue of gamma oscillations previously degraded by Aβ in hippocampal slices (submerged chamber). It counts as cell-based. The following applies: Aβ still present.
Procedure: Hippocampal slices were placed in a submerged recording chamber where gamma oscillations were induced by bath perfusion of 100 nM KA and allowed to stabilize for 20-30 min. Continuous recordings of LFP gamma oscillations were performed in 4 different conditions (FIG. 5). All groups were initially activated with Kainate. In a control group of slices oscillations were recorded for 40 min after stabilization without any other compound addition (control, n=5, grey). All other groups were perfused with 1 μM Aβ after stabilization of the oscillations for a minimum of 20 min. For these experiments the concentration of Aβ applied was increased to 1 μM in order to overcome the method-dependent lower signal amplitude due to the submerged recording conditions (8).
Hippocampal slices were placed on a submerged recording chamber where gamma oscillations were induced by bath perfusion of 100 nM Kainate and allowed to stabilize for 20-30 minutes. Continuous recordings of LFP gamma oscillations were performed in 3 different conditions. All groups were initially activated with kainate. In a control group of slices oscillations were recorded for 40 minutes after their stabilization without any other compound addiction (control, n=5; see FIG. 5). All the other groups were perfused with Aβ 1 μM after the stabilization of the oscillations for a minimum of 20 minutes.

As for `Clc1ccc(N2CCN(Cc3c[nH]c4ncccc34)CC2)cc1` [L745,870], in assay [1] (1 h incubation with 500 nM compound), the gamma oscillation power was 1.61±0.52 ×10^−9V^2. With `CC(C)(C)CCN1C[C@@H]2[C@@H](CNC(=O)c3cc(Cl)cc(Cl)c3)[C@@H]2C1` [ML-218], in assay [2] (5 μM compound applied after 20 min of 1 μM Aβ), the “gamma power after treatment application, relative to Aβ” value is 2.16±0.53 of Aβ. As for `CC(C)[C@H]1c2ccc(F)cc2CC[C@@]1(CCN(C)CCCc1nc2ccccc2[nH]1)OC(=O)C1CC1` [NNC55-0396], the “gamma power after treatment application, relative to Aβ” value in assay [2] (10 μM compound applied after 20 min of 1 μM Aβ) is given as 1.85±0.15 of Aβ. As for `CC1CCN(CC[C@H]2CCCN2S(=O)(=O)c2cccc(O)c2)CC1` [SB-269970, ®-3-(2-(2-(4-methylpiperidin-1-yl)ethil)pyrrolidine-1-sulfonyl) phenol], in assay [1] (1 h incubation with 1 μM compound), the gamma oscillation power is on record as 1.47±0.24 ×10^−9V^2. As to `CCN1CCCC1CNC(=O)c1cc(S(N)(=O)=O)ccc1OC` (centres unmarked) [Sulpiride], the gamma oscillation power in assay [1] (1 h incubation with 5 μM compound) was 2.23±0.52 ×10^−9V^2.
